“And” between values parts separate entries of the source, which are not always exact repeats. Identical values can stand only once. “Also recorded” adds a separate entry of the source.
Legend:
Type in all cases: cell-based, human
[1] = system: A498 cells; experiment: MTT cytotoxicity, kidney cancer cells A498; conditions: for selectivity index: MCF-10F/Beas2b vs A498
Method in brief: (§1)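 Viability was quantified by MTT reduction following 48 and/or 72 h compound exposure at four concentrations (0.1, 1, 5, 10 μM). Values are percentages of DMSO-treated controls, with IC50 fitted from dose-response data.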

[2] = system: HUVEC cells; experiment: MTT cytotoxicity, healthy cells HUVEC; conditions: for Selectivite Index, HUVEC (Table 2): HUVEC vs colon or pancreas cancer cells; for Selectivite Index, HUVEC (Table 2) / Selectivite Index (SI), HUVEC (Table 1): cancer line not given; for IC50: MTT; for Selectivite Index (SI), HUVEC (Table 1): HUVEC vs breast or kidney cancer cells
Method in brief: as §1

[3] = system: HCT-116 cells; experiment: MTT cytotoxicity, colon cancer cells HCT-116
Method in brief: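 Cells were seeded at 5000 per well and treated next day with compound at 0.1, 1, 5 and 10 μM (final) for 48 and/or 72 h, with matched DMSO controls. MTT was added for 4 h and formazan was dissolved in DMSO and read at 570/630 nm. % viability against control gave IC50 from dose-response curves.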

[4] = system: general tyrosine kinase activity in MIA PaCa-2 pancreas cancer cells; experiment: General tyrosine kinase activity (ELISA) in MIAPaCa-2 cells; conditions: 72 hours, IC50 concentration
Description: Takara Universal Tyrosine Kinase Assay Kit is used to determine the effects of 11 2-indolinone compounds (Y1, Y2, Y3, Y4, Y5, Y8, […], […], Y21, Y23, 20C, 22C) on general tyrosine kinase activity in cancer cells. Cells are seeded in 6-well plates (4.10^5 cells/well) and the IC50 concentration of each selected molecule is performed to the cells for 48 or 72 hours. Cells in the control group are incubated with medium only. At the end of the incubation period, the cells in each well are washed with PBS and cells are removed from the wells using a cell scraper via 1 ml of the extraction buffer in the kit. The cell lysate is transferred to ependorf tubes and centrifuged at 10.000 g for 10 minutes at +4° C. and the supernatant is used as a sample for activity determination. After the extracts obtained from the control and experimental groups are diluted 1:25, 40 μl extracts is transferred to two wells in the 96-well plate in the kit. In addition, the standard solution in the kit is diluted according to the kit instructions and each concentration is transferred 40 μl into three wells. 10 μl of 40 mM ATP-2Na solution is added to all wells and the plate is incubated at 37° C. for 30 minutes. After incubation, all wells are washed 4 times with wash buffer. 100 μl of blocking solution is added to each well and incubated again at 37° C. for 30 minutes. After incubation, the liquid in the wells is discarded and 50 μl of anti-phosphotyrosine-HRP solution is added to each well and incubated at 37° C. for 30 minutes. The wells are washed again four times with wash buffer and 100 μl of HRP-substrate solution (TMBZ) is added to each well and incubated at 37° C. for 15 minutes. The reaction is finished by adding 100 μl of stop solution to each well and the optical density in each well is measured at 405 nm with a microplate reader (BioTek, USA). The tyrosine kinase activity in each sample is calculated from the standard curve obtained from the absorbance values of the standard solutions with the kit (Chan W Y, Lau P M, Yeung K W, Kong S K. The second generation tyrosine kinase inhibitor dasatinib induced eryptosis in human erythrocytes—An in vitro study. Toxicol Lett. 2018; 295:10-21). This activity is normalized compared to the control group by dividing by the amount of protein in each sample.
The effects of 11 2-indolinone compounds (Y1, Y2, Y3, Y4, Y5, Y8, Y14, Y21, Y23, 20C and 22C) having the structure of formula (5), which are prominent with their cytotoxicity in A498, MIAPaCa-2 and HCT-116 cancer cell lines and nontoxic properties in healthy cells, on general tyrosine kinase activity in cancer cells are determined.

[5] = MTT, no * mark (incubation time not specified)
[6] = no * mark (incubation time not specified)

Structure (SMILES)	IC50 [1, 5]	Selectivite Index, HUVEC (Table 2) [2]	IC50 [2, 6]	IC50 [3, 6]	general tyrosine kinase activity compared to control [4]	IC50 ([1]; Homo sapiens, A498, MTT, no * mark (incubation time not given))	selectivity index [1]	Selectivite Index (SI), HUVEC (Table 1) [2]	IC50 ([2]; Homo sapiens, HUVEC, no * mark (incubation time not given))	IC50 ([3]; Homo sapiens, HCT-116, no * mark (incubation time not given))
O=C1/C(=C\c2c[nH]c3ccccc23)c2ccccc2N1Cc1ccccc1 [Y1]	4110 nM	6.60	2840 nM	2640 nM	significantly decreased; also recorded: decreased the general tyrosine kinase activity	–	–	–	–	–
Cc1ccc2c(c1)/C(=C/c1c[nH]c3ccccc13)C(=O)N2Cc1ccccc1 [Y3]	–	12.69	–	–	significantly decreased; also recorded: decreased the general tyrosine kinase activity	870 nM	> 11	1.89	1650 nM	2050 nM
O=C1/C(=C\c2c[nH]c3ccccc23)c2cc(OC(F)(F)F)ccc2N1Cc1ccccc1 [Y4]	4230 nM	4.28 and 4.60	2440 nM	570 nM	significantly decreased; also recorded: decreased the general tyrosine kinase activity	–	–	–	–	–
Cc1ccc2c(c1)/C(=C/c1c[nH]c3ccccc13)C(=O)N2Cc1cccc(F)c1 [Y8]	930 nM	4.07	2200 nM	1210 nM	significantly decreased; also recorded: decreased the general tyrosine kinase activity	–	> 11	2.36	–	–

— patent US20260335282A1, “NOVEL 3-ARYLIDENE-2-INDOLINONE DERIVATIVES FOR THERAPEUTIC USE” (ISTANBUL UNIVERSITESI REKTORLUGU, priority 2022, published 2026)
